The source of these data is ChEMBL document CHEMBL5357036, “Latest developments in coumarin-based anticancer agents: mechanism of action and structure-activity relationship studies” (RSC Med Chem, 2024).

Each structure is given as a SMILES string. Values after ≈ are worked out from the molar mass of the structure shown.

Test [1] has as its system MCF7. Kind of test: Anticancer activity against human MCF7 cells assessed as inhibition of cell proliferation measured after 48 hrs by MTT assay. The class given is functional, cell-based. The note with it: MCF7, 48 h. For orientation: Tetrazolium dyes change colour on reduction, which living cells bring about.
The subject of test [2] is MCF7-DOX. Kind of test: Antiproliferative activity against human MCF7-DOX cells assessed as reduction in cell viability incubated for 72 hrs by MTT assay. The class given is functional, cell-based.
For another test, the system named is SK-OV-3. Kind of test: Anticancer activity against human SK-OV-3 cells assessed as reduction in cell viability incubated for 24 hrs by MTT assay. The class given is functional, cell-based. As to conditions: SK-OV-3, 24 h.
The test system of test [3] is HeLa. In words: Growth inhibition of human HeLa cells incubated for 48 hrs by MTT assay. The class given is functional.
In test [4] the test system is MCF7. In words: Anticancer activity against human MCF7 cells assessed as inhibition of cell proliferation measured after 72 hrs by MTT assay. The class given is functional, cell-based. As to conditions: MCF7, 72 h.
The test system of the next test is C6. In words: Antiproliferative activity against rat C6 cells assessed as inhibition of cell growth. The class given is functional, cell-based.
For a further test, the system named is MGC-803. In words: Cytotoxicity against human MGC-803 cells assessed as cell growth inhibition incubated for 24 hrs by MTT assay. The class given is functional, cell-based. The note with it: MGC-803, 24 h.
The subject of another test is NCI-H460. In words: Cytotoxicity against human NCI-H460 cells assessed as cell growth inhibition incubated for 24 hrs by MTT assay. The class given is functional, cell-based. The note with it: NCI-H460, 24 h.
Test [5] has as its system A549. In words: Cytotoxicity against human A549 cells assessed as cell growth inhibition incubated for 24 hrs by MTT assay. The class given is functional, cell-based. The note with it: A549, 24 h.
Test [6] has as its system HeLa. In words: Cytotoxicity against human HeLa cells assessed as growth inhibition measured after 48 hrs by MTT assay. The class given is functional, cell-based.
The test system of a further test is Ehrlich. Kind of test: Cytotoxicity against mouse EAC cell assessed as reduction in cell viability by MTT assay. The class given is functional, cell-based.
Test [7] is described as follows: Cytotoxicity against mouse DLA cell assessed as reduction in cell viability by trypan blue assay. The class given is functional, cell-based.
The nature of test [8]: Cytotoxicity against mouse DLA cell assessed as reduction in cell viability by LDH leak assay. The class given is functional, cell-based.
Test [9] relates to MCF7. In words: Antiproliferative activity against human MCF7 cells assessed as reduction in cell viability measured after 48 hrs by MTT assay. As to conditions: MCF7, 48 h. The class given is functional, cell-based.
Test [10] has as its system HepG2. In words: Antiproliferative activity against human HepG2 cells assessed as reduction in cell viability measured after 48 hrs by MTT assay. The class given is functional, cell-based. As to conditions: HepG2, 48 h.
The nature of test [11]: Cytotoxicity against rat H4-II-E cells assessed as reduction in cell viability measured after 24 hrs by MTT assay. The class given is functional, cell-based. As to conditions: H4IIE.
The test system of another test is DU-145. In words: Anticancer activity against human DU-145 cells assessed as reduction in cell viability by SRB assay. The class given is functional, cell-based. For orientation: Sulforhodamine B stains cellular protein and so reports cell mass.
Test [12] deals with HepG2. In words: Anticancer activity against human HepG2 cells assessed as reduction in cell viability by SRB assay. The class given is functional, cell-based.
In test [13] the test system is A549. Kind of test: Anticancer activity against human A549 cells assessed as reduction in cell viability by SRB assay. The class given is functional, cell-based.
The test system of test [14] is MCF7-DOX. In words: Antiproliferative activity against human MCF7-DOX cells assessed as reduction in cell viability by SRB assay. The class given is functional, cell-based.
Test [15] deals with MCF7. Kind of test: Anticancer activity against human MCF7 cells assessed as reduction in cell viability by SRB assay. The class given is functional, cell-based.
Test [16] relates to MCF7. Kind of test: Cytotoxicity against human MCF7 cells assessed as inhibition of cell growth incubated for 72 hrs by MTT assay. The class given is functional.
Another test has as its system MT4. In words: Cytotoxicity against human MT4 cells assessed as inhibition of cell growth incubated for 72 hrs by MTT assay. The class given is functional.
The subject of the next test is MDA-MB-231. In words: Cytotoxicity against human MDA-MB-231 cells assessed as inhibition of cell growth incubated for 72 hrs by MTT assay. The class given is functional.
Test [17] relates to HepG2. In words: Cytotoxicity against human HepG2 cells assessed as growth inhibition measured after 48 hrs by MTT assay. The class given is functional, cell-based. As to conditions: HepG2, 48 h.
A further test deals with SNB-75. In words: Antiproliferative activity against human SNB-75 cells assessed as cell growth inhibition at 10 uM by SRB assay relative to control. The class given is functional.
The subject of test [18] is HepG2. Kind of test: Antiproliferative activity against human HepG2 cells assessed as reduction in cell viability incubated for 48 hrs by MTT assay. The class given is functional, cell-based. The note with it: HepG2, 48 h.
The subject of test [19] is HepG2. In words: Induction of apoptosis in human HepG2 cells assessed as increase in apoptotic cells at 10 uM by Annexin V-FITC staining based flow cytometry (reference value: 13.76 %). The class given is functional. For orientation: A flow cytometer gives signals particle by particle.
Test [20] relates to MCF7. Kind of test: Antiproliferative activity against human MCF7 cells assessed as reduction in cell viability incubated for 48 hrs by cell titer-glo assay. The class given is functional, cell-based. The note with it: MCF7, 48 h.

`Cc1cc(=O)oc2cc(OCCOCCOCCOCN3C(=O)/C(=N/O)c4cc(F)ccc43)ccc12`: the IC50 (usually the midpoint of a concentration-inhibition curve) came out at 11.9 µM with MCF7 [1], 18.9 µM in the test with MCF7-DOX [2] and 23.8 µM with SK-OV-3.
`O=c1cc(-c2nccc3c2[nH]c2ccccc23)c2cc(Cl)ccc2o1`: it took 23.4 µg/mL (≈ 67.5 µM) to inhibit growth with HeLa [3] by half (GI50).
Turning to `O=C(O)COc1ccc2ccccc2c1/C=C/C(=O)c1cc2c(ccc3ccccc32)oc1=O`, the IC50 with MCF7 [4] is 15.4 µM.
In the case of `Cc1cn(Cc2cc(=O)oc3ccc(Cl)cc23)c(=O)n(Cc2cc(=O)oc3ccc(Cl)cc23)c1=O`, the concentration for half-maximal inhibition (IC50) in the test with C6 was found to be 4.85 µM.
As to `O=c1oc2ccccc2cc1NCc1ccc(Br)cc1`, the figures for the IC50 with MGC-803, in the test on NCI-H460 and in the test on A549 [5] were 10.2 µM, 9.25 µM and 8.75 µM, respectively.
As to `CCCCOc1ccc2cc(C(=O)NNC(=O)c3c(C)oc4nc(NCCC)n(-c5ccc(C)cc5)c(=O)c34)c(=O)oc2c1`, the IC50 in the test with HeLa [6] stood at 6.47 µM.
Regarding `COc1ccc(-c2csc(NC(=O)c3cc4ccc(OC)cc4oc3=O)n2)cc1`, the IC50 in the test with Ehrlich came to 15.3 µM; in test [7] it was 15.6 µM; in test [8], 14.2 µM.
With `N#Cc1c(NN)nc(SCc2cc(=O)oc3ccccc23)nc1-c1ccccc1`, the IC50 was found to be 6.9 µg/mL (≈ 17.2 µM) in the test with MCF7 [9] and 5.5 µM in the test on HepG2 [10].
For the compound `O=C(Nc1ccc(/C=C/C(=O)c2cc3ccccc3oc2=O)cc1)Nc1ccc(C(F)(F)F)cc1`, the half-maximal inhibitory concentration (IC50) in test [11] worked out at 1.62 µM.
Turning to `Cc1cc(=O)oc2cc(OCCOCCN3C(=O)/C(=N/O)c4cc(F)ccc43)ccc12`, the half-maximal inhibitory concentration (IC50) amounted to 20.8 µM in the test with DU-145; 10.3 µM with HepG2 [12]; 10.9 µM in the test with A549 [13]; 14.5 µM with MCF7-DOX [14]; 11.3 µM with MCF7 [15].
In the case of `CC(=O)c1cc2cc(Nc3c(C)cc(C)c(-c4cc5ccccc5nc4F)c3C)c(=O)oc2cc1O`, the 50% growth inhibitory concentration (GI50) – broadly, the concentration that inhibits growth by half – came out at 10.5 µM in the test on MCF7 [16], 12.6 µM in the test with MT4 and 11.8 µM in the test on MDA-MB-231.
Turning to `CCCCOc1ccc2cc(C(=O)NNC(=O)c3c(C)oc4nc(N(CCC)CCC)n(-c5ccc(C)cc5)c(=O)c34)c(=O)oc2c1`, the IC50 in the test with HepG2 [17] is 4.87 µM.
Turning to `COc1cc2c3c(c(=O)oc2cc1OS(=O)(=O)c1ccc(C(F)(F)F)cc1)CCCCC3`, the inhibition (as a rule, the drop in the measured response relative to a control, in per cent) at 10 µM with SNB-75 amounted to 91.9%.
Turning to `C/C(=N\Nc1nc(-c2ccccc2)cs1)c1ccc(NS(=O)(=O)c2ccc3oc(=O)ccc3c2)cc1`, the half-maximal inhibitory concentration (IC50) in the test on HepG2 [18] was 3.48 µM. Also, the Activity in the test with HepG2 [19] stood at 1.75%.
In the case of `CCN(C)S(=O)(=O)c1ccc(/C(C)=N/NC(=O)c2cc3ccccc3oc2=O)cc1`, the half-inhibitory concentration (IC50) in the test on MCF7 [20] was found to be 2.56 µM.
